Experimental findings from patent US20250136595A1, “ACYLATED HETEROCYCLIC QUINAZOLINE DERIVATIVES AS INHIBITORS OF ERBB2” (Enliven Inc., priority 2022, published 2025) are described below.

For test [1], the target named is T1, phosphorylated EGFR (pEGFR) (Homo sapiens, UniProt P00533).
T1 construct: performed to measure phosphorylated EGFR levels using A431 cells; endogenous in cells; host or cells: A431
The test is described as follows: Detection of phosphorylated EGFR (pEGFR) in EGF-stimulated A431 cells (AlphaLISA). It counts as cell-based. As to conditions: A431 cells (10% FBS), 4 hours incubation, EGF 30 ng/mL for 10 minutes. A digest of the protocol: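 Cells in 10% FBS treated with compound 4 h at 37° C., then stimulated 10 min with 30 ng/mL EGF, lysed, and pEGFR measured by AlphaLISA. Inhibition normalized to DMSO and staurosporine controls; IC50 from four-parameter logistic fit.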
On the technique in general: Bead proximity is the source of the signal in Alpha formats.

Test [2] addresses Ba/F3 ERBB2 YVMA (Homo sapiens, UniProt P04626, DUP772-775, cells depend on it). The test is described as follows: Cell viability assay (CellTiter Glo) in Ba/F3 cells engineered to express ERBB2 YVMA. It is filed as cell-based, mouse. As to conditions: Ba/F3 cells expressing human ERBB2 YVMA mutant, 72 hours, % viability, read-out: Ba/F3 ERBB2 YVMA IC50. The procedure, abridged:
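IL-3-independent mouse Ba/F3 line stably transduced with human ERBB2 YVMA, seeded at 3000 cells/well, exposed to serially diluted compound (≤0.1% DMSO) for 72 h at 37° C. ATP read by CellTiter Glo luminescence, normalised to DMSO and media-only controls; sigmoidal nonlinear regression fit.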
In general terms: In ATP-based viability assays light output follows the ATP content of the culture.

Test [3] addresses T2, phosphorylated ERBB2 (pERBB2) (Homo sapiens, UniProt P04626).
T2 construct: endogenous in cells; host or cells: BT-474
Description: Detection of phosphorylated ERBB2 (pERBB2) by ELISA in BT-474 cells. Conditions: four hour incubation with compound. It counts as cell-based. The procedure, abridged: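 BT-474 cells treated 4 h at 37 °C, 5% CO2 with four-fold dilutions (10 μM to 0.01 nM final). Lysates analysed by ELISA for pERBB2, TMB read at OD 450 nm. % relative activity normalised to no-cell (low) and 0.1% DMSO-treated (high) controls.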
On the technique in general: An ELISA detects its analyte on a solid surface through an enzyme-linked reagent.

As usually defined, the pIC50 is the IC50 on a negative log10 scale, so that one unit is a factor of ten.

Molecules are shown by their SMILES. pIC50: −log10 of the molar value.

T2 sequence (P04626 23-1255): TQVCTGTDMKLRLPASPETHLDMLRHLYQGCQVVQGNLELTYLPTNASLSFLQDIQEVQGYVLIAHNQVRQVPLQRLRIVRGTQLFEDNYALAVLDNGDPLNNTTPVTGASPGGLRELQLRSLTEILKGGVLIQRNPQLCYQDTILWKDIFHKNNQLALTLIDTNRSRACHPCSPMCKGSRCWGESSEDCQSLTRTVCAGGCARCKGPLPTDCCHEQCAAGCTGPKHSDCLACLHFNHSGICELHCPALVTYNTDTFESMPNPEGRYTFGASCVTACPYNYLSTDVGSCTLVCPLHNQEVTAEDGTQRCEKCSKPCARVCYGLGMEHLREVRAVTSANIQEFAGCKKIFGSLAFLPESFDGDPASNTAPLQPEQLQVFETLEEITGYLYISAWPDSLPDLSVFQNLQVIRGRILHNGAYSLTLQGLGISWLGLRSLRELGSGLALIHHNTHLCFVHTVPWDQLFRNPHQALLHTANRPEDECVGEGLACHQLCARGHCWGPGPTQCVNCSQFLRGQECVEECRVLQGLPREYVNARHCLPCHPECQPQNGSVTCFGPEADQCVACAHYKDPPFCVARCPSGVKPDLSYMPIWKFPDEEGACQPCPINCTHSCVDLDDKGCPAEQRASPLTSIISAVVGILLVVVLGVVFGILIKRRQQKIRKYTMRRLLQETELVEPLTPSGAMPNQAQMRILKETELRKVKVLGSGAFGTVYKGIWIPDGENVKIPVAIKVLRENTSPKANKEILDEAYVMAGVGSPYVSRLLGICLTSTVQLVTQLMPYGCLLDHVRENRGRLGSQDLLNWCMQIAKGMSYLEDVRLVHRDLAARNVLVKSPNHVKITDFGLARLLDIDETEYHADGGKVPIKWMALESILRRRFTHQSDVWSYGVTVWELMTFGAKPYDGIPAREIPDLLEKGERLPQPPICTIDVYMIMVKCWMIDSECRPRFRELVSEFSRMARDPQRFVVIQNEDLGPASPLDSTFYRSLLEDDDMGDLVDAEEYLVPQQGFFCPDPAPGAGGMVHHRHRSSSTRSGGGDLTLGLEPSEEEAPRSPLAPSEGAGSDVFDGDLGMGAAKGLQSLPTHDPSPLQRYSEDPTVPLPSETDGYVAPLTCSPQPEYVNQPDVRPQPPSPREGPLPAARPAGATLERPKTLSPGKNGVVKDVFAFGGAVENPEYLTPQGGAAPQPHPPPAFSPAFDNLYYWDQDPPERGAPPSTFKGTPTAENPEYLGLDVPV
Ba/F3 ERBB2 YVMA, sequence (P04626 with tags, fused parts or gaps DUP772-775): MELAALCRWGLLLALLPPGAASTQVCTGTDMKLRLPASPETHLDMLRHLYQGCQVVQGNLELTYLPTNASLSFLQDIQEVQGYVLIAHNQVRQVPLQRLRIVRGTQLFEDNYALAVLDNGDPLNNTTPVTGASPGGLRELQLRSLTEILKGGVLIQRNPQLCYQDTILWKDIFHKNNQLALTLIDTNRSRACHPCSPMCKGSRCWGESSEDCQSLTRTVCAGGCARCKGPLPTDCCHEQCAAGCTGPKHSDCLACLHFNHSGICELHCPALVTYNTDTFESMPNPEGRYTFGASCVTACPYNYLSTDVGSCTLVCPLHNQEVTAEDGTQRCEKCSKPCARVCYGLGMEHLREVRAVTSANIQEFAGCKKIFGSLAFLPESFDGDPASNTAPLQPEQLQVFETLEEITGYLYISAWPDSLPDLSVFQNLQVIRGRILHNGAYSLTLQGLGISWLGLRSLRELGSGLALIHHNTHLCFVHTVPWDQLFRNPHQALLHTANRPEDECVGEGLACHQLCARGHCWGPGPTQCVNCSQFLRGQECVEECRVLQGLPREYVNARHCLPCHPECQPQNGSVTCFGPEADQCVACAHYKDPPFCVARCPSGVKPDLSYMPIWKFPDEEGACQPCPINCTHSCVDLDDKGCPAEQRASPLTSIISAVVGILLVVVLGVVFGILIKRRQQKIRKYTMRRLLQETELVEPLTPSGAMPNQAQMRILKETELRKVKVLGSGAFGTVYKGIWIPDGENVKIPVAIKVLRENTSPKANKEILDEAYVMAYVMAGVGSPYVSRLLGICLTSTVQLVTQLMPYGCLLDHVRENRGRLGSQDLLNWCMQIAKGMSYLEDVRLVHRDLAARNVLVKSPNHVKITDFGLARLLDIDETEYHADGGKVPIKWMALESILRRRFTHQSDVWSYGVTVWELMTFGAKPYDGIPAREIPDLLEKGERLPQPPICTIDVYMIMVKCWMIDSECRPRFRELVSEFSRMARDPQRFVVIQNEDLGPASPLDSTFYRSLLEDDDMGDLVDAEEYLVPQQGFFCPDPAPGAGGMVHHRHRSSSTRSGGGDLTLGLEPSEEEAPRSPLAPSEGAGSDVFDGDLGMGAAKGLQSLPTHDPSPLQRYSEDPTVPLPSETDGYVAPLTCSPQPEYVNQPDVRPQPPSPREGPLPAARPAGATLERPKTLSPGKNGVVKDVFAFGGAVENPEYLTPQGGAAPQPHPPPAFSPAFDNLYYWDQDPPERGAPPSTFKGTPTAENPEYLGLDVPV
T1 sequence (P00533 25-1210): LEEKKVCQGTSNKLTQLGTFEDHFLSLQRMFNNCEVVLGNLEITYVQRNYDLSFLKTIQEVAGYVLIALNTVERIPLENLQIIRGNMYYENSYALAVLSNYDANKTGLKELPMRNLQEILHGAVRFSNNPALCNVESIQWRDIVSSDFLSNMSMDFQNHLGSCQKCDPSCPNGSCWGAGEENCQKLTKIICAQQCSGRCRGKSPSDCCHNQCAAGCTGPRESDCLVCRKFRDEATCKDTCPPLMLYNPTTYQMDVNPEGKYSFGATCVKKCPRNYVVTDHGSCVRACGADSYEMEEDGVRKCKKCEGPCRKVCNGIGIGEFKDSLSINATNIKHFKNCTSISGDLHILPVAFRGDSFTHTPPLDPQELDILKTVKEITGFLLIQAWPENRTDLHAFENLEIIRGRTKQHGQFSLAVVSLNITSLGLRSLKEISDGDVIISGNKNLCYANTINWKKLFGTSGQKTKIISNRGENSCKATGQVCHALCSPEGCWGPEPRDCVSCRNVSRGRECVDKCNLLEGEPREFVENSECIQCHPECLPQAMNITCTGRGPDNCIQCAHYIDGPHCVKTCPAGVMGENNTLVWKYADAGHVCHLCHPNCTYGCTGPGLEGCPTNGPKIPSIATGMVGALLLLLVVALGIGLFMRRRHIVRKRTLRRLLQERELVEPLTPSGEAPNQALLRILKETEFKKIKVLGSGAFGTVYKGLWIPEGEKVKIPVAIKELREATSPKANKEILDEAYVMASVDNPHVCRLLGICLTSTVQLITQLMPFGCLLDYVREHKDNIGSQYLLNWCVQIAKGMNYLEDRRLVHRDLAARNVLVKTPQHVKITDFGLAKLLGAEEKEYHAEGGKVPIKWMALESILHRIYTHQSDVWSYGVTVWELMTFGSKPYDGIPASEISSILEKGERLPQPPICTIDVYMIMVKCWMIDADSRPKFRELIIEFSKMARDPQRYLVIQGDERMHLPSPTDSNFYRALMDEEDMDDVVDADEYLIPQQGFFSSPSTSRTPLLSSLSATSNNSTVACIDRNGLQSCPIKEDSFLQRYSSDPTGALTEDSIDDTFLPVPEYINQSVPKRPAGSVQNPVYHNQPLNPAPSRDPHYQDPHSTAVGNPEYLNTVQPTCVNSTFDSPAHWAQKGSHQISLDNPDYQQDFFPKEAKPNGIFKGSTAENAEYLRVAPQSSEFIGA

With `C=CC(=O)N1CCN(c2cc3c(Nc4ccc(Cc5ccn6ncnc6c5)c(C)c4)ncnc3cn2)CC1` [Compound 103, 1-(4-(4-((4-([1,2,4]triazolo[1,5-a]pyridin-7-ylmethyl)-3-methylphenyl)amino)pyrido[3,4-d]pyrimidin-6-yl)piperazin-1-yl)prop-2-en-1-one], the pIC50 in test [1] is 5.56; in test [3], 7.80. Besides, in test [2], the GI50 is 24.9 nM.
For the compound `Cc1cc(Nc2ncnc3ccc(N4CCN(C(=O)/C=C/CN(C)C)CC4C)c(F)c23)ccc1Cc1ccn2ncnc2c1` (stereo not drawn) [Compound 94, (E)-1-(4-(4-((4-([1,2,4]triazolo[1,5-a]pyridin-7-ylmethyl)-3-methylphenyl)amino)-5-fluoroquinazolin-6-yl)-3-methylpiperazin-1-yl)-4-(dimethylamino)but-2-en-1-one], the pIC50 in test [1] was less than 5.00; in test [3], 6.80. In addition, the GI50 in test [2] was greater than 500 nM.
As for `C=CC(=O)N1C2CCC1CN(c1ccc3ncnc(Nc4ccc(Oc5ccn6ncnc6c5)c(C)c4)c3n1)C2` [Compound 18, 1-(3-{4-[(3-methyl-4-{[1,2,4]triazolo[1,5-a]pyridin-7-yloxy}phenyl)amino]pyrido[3,2-d]pyrimidin-6-yl}-3,8-diazabicyclo[3.2.1]octan-8-yl)prop-2-en-1-one], the figures for the pIC50 in test [1] and in test [3] were 6.53 and 7.87, respectively. Further, the GI50 in test [2] came to 6.26 nM.
As for `C=CC(=O)N1CCN(c2ccc3ncnc(Nc4ccc(Oc5ccc6c(c5)ncn6C)c(C)c4)c3c2F)C[C@H]1C` [Compound 64, 1-[(2R)-4-[5-fluoro-4-({3-methyl-4-[(1-methyl-1,3-benzodiazol-5-yl)oxy]phenyl}amino)quinazolin-6-yl]-2-methylpiperazin-1-yl]prop-2-en-1-one], the pIC50 in test [1] was 5.60; in test [3], 7.41. In addition, the GI50 in test [2] turned out to be 12.4 nM.
For the compound `C=CC(=O)N1CCN(c2ccc3ncnc(Nc4ccc(Oc5ccc(C)nc5)c(C)c4)c3n2)CC1` [Compound 91, 1-(4-(4-(3-methyl-4-(6-methylpyridin-3-yloxy)phenylamino)pyrido[3,2-d]pyrimidin-6-yl)piperazin-1-yl)prop-2-en-1-one], the values for the pIC50 in test [1] and in test [3] were 6.48 and 7.66, respectively. For the same compound, the GI50 in test [2] was 17.5 nM.
For the compound `C=CC(=O)N1CCCN(c2ccc3ncnc(Nc4ccc(Oc5ccn6ncnc6c5)c(C)c4)c3n2)CC1` [Compound 16, 1-(4-{4-[(3-methyl-4-{[1,2,4]triazolo[1,5-a]pyridin-7-yloxy}phenyl)amino]pyrido[3,2-d]pyrimidin-6-yl}-1,4-diazepan-1-yl)prop-2-en-1-one], the pIC50 in test [1] was 5.10; in test [3] it was 7.51. Also, the GI50 in test [2] was determined as 99.5 nM.
Take `C=CC(=O)N1CCN(c2cc3c(Nc4ccc(OC5CCN(C(=O)CC(C)(C)C)CC5)c(C)c4)ncnc3cn2)CC1` [Compound 3, 3,3-dimethyl-1-{4-[2-methyl-4-({6-[4-(prop-2-enoyl)piperazin-1-yl]pyrido[3,4-d]pyrimidin-4-yl}amino)phenoxy]piperidin-1-yl}butan-1-one]: the negative-log IC50 (pIC50) was 5.77 in test [1] and 7.37 in test [3]. Further, the GI50 in test [2] stood at 40.2 nM.
For `C=CC(=O)N1CCN(c2cc3c(Nc4ccc(Oc5ccc(C(=O)NCC(C)(C)C)cc5)c(C)c4)ncnc3cn2)CC1` [Compound 39, N-(2,2-dimethylpropyl)-4-[2-methyl-4-({6-[4-(prop-2-enoyl)piperazin-1-yl]pyrido[3,4-d]pyrimidin-4-yl}amino)phenoxy]benzamide], the pIC50 was 5.47 in test [1] and 7.22 in test [3]. The GI50 in test [2] came to 53 nM.
Turning to `Cc1cc(Nc2ncnc3cnc(N4CCN(C(=O)/C=C/CN(C)C)[C@H](C)C4)nc23)ccc1Cc1ccn2ncnc2c1` [Compound 122, (R,E)-1-(4-(8-((4-([1,2,4]triazolo[1,5-a]pyridin-7-ylmethyl)-3-methylphenyl)amino)pyrimido[5,4-d]pyrimidin-2-yl)-2-methylpiperazin-1-yl)-4-(dimethylamino)but-2-en-1-one], the pIC50 in test [1] is less than 5.00; in test [3], 7.27. The GI50 in test [2] was 32.4 nM.
Take `C=CC(=O)N1CCN(c2ccc3ncnc(Nc4ccc(Cc5ccn6ncnc6c5)c(C)c4)c3n2)[C@@H](C)C1` [Compound 66, (S)-1-(4-(4-((4-([1,2,4]triazolo[1,5-a]pyridin-7-ylmethyl)-3-methylphenyl)amino)pyrido[3,2-d]pyrimidin-6-yl)-3-methylpiperazin-1-yl)prop-2-en-1-one]: the negative-log IC50 (pIC50) is 5.04 in test [1] and 7.74 in test [3]. Besides, the GI50 in test [2] worked out at 12.5 nM.
`CC#CC(=O)N1CC2CCC(C1)N2c1ccc2ncnc(Nc3ccc(Oc4ccc5c(c4)ncn5C)c(C)c3)c2n1` [Compound 75, 1-(8-(4-((3-methyl-4-((1-methyl-1H-benzo[d]imidazol-5-yl)oxy)phenyl)amino)pyrido[3,2-d]pyrimidin-6-yl)-3,8-diazabicyclo[3.2.1]octan-3-yl)but-2-yn-1-one]: the pIC50 in test [1] is 5.39; in test [3], 7.37. Besides, the GI50 in test [2] amounted to 8.19 nM.
In the same order, the values of `CC#CC(=O)N1CCN(c2ccc3ncnc(Nc4ccc(Oc5ccc6c(c5)ncn6C)c(C)c4)c3n2)CC1` [Compound 31, 1-{4-[4-({3-methyl-4-[(1-methyl-1,3-benzodiazol-5-yl)oxy]phenyl}amino)pyrido[3,2-d]pyrimidin-6-yl]piperazin-1-yl}but-2-yn-1-one] are 5.12, 7.54 and 6.56 nM.
In the case of `C=CC(=O)N1CCN(c2ccc3ncnc(Nc4ccc(Oc5ccn6ncnc6c5)c(C)c4)c3c2)[C@@H](C)C1` [Compound 90, (S)-1-(4-(4-((4-([1,2,4]triazolo[1,5-a]pyridin-7-yloxy)-3-methylphenyl)amino)quinazolin-6-yl)-3-methylpiperazin-1-yl)prop-2-en-1-one], the pIC50 was 5.49 in test [1] and 7.84 in test [3]. In addition, the GI50 in test [2] was 12 nM.
For the compound `C=CC(=O)N1CCN(c2ccc3ncnc(Nc4ccc(Cc5ccc6c(c5)ncn6C)c(C)c4)c3c2)[C@@H](C)C1` [Compound 125, (S)-1-(3-methyl-4-(4-((3-methyl-4-((1-methyl-1H-benzo[d]imidazol-5-yl)methyl)phenyl)amino)quinazolin-6-yl)piperazin-1-yl)prop-2-en-1-one], the figures for the pIC50 in test [1] and in test [3] were less than 5.00 and 7.02, respectively. Besides, the GI50 in test [2] was found to be 61.2 nM.
In the same order, the values of `C=CC(=O)N1CCN(c2ccc3ncnc(Nc4ccc(Oc5ccn6ncnc6c5)c(C)c4)c3c2)CC1` [Compound 7, 1-(4-{4-[(3-methyl-4-{[1,2,4]triazolo[1,5-a]pyridin-7-yloxy}phenyl)amino]quinazolin-6-yl}piperazin-1-yl)prop-2-en-1-one] are 6.16, 7.89 and 8.65 nM.
Consider `C=CC(=O)N1CCN(c2ncc3ncnc(Nc4ccc(Oc5ccc6c(c5)ncn6C)c(C)c4)c3n2)[C@@H](C)C1` [Compound 76, 1-[(3S)-3-methyl-4-[8-({3-methyl-4-[(1-methyl-1,3-benzodiazol-5-yl)oxy]phenyl}amino)-[1,3]diazino[5,4-d]pyrimidin-2-yl]piperazin-1-yl]prop-2-en-1-one], for which the pIC50 in test [1] was 5.70; in test [3] it was 7.61. In addition, the GI50 in test [2] was found to be 10 nM.
Turning to `CC#CC(=O)N1CC[C@H](Oc2ccc3ncnc(Nc4ccc(Oc5ccc6c(c5)ncn6C)c(C)c4)c3n2)C1` [Compound 50, 1-[(3S)-3-{[4-({3-methyl-4-[(1-methyl-1,3-benzodiazol-5-yl)oxy]phenyl}amino)pyrido[3,2-d]pyrimidin-6-yl]oxy}pyrrolidin-1-yl]but-2-yn-1-one], the pIC50 in test [1] is less than 5.00; in test [3], 6.32. Moreover, in test [2], the GI50 turned out to be 52 nM.
In the same order, the values of `C=CC(=O)N1CCN(c2ccc3ncnc(Nc4ccc(Oc5ccc6c(c5)ncn6C)c(C)c4)c3n2)C[C@H]1C` [Compound 48, 1-[(2R)-2-methyl-4-[4-({3-methyl-4-[(1-methyl-1,3-benzodiazol-5-yl)oxy]phenyl}amino)pyrido[3,2-d]pyrimidin-6-yl]piperazin-1-yl]prop-2-en-1-one] are 5.92, 7.48 and 18.3 nM.
In the same order, the values of `C=CC(=O)N1CCN(c2cc3c(Nc4ccc(Oc5ccc6c(c5)ncn6C)c(C)c4)ncnc3cn2)CC1` [Compound 106, 1-{4-[4-({3-methyl-4-[(1-methyl-1,3-benzodiazol-5-yl)oxy]phenyl}amino)pyrido[3,4-d]pyrimidin-6-yl]piperazin-1-yl}prop-2-en-1-one formic acid] are 5.97, 7.74 and 10.3 nM.
In the same order, the values of `CC#CC(=O)N1CCN(c2cc3c(Nc4ccc(Oc5ccc6c(c5)ncn6C)c(C)c4)ncnc3cn2)C[C@H]1C` [Compound 71, 1-[(2R)-2-methyl-4-[4-({3-methyl-4-[(1-methyl-1,3-benzodiazol-5-yl)oxy]phenyl}amino)pyrido[3,4-d]pyrimidin-6-yl]piperazin-1-yl]but-2-yn-1-one] are 5.99, 7.66 and 20.4 nM.
